Source: publication PMC6384574, “Colistin Use in Patients with Chronic Kidney Disease: Are We Underdosing Patients?” (Molecules, 2019)
Positions of bridges follow the written chain, without caps; N, C: chain ends. Non-standard residues stand in square brackets, D forms with d. Residues, ends and D or L forms follow the SMILES beside them. *: point of attachment. X1 = CC[C@H](C)CCCCC(=O)*; Dab = NCC[C@H](N)C(=O)O

What was measured:
[1] = Worsened renal function (nephrotoxicity) at end of treatment, RIFLE criteria; settings: multivariate logistic regression
Experimental: (§2) Patient data included demographic information, SOFA score [31], Charlson comorbidity index [32], CMS treatment (indication, daily and total cumulative dose measured in millions of IU and treatment duration). GFR at baseline and at EOT was calculated using the abbreviated Modification of Diet in Renal Disease equation (MDRD-4) [33]. WRF was defined as a decrease in GFR ≥25% and was classified according to the Risk, Injury, Failure, Loss of kidney function, and End-stage kidney disease (RIFLE) criteria [34]. Patients with WRF were followed up until GFR recovery or until hospital discharge. Information was collected on the concomitant use of other potential nephrotoxic drugs such as aminoglycosides, vancomycin, angiotensin II receptor blockers, angiotensin-converting enzyme (ACE) inhibitors, loop diuretics, intravenous dye, amphotericin B and non-steroidal anti-inflammatory drugs (NSAIDs), as well as the need for vasopressor drugs or discontinuation of CMS due to nephrotoxicity. Combination therapy with other antibiotics with potential activity or synergy with colistin was assessed.
(§3) Dichotomous data were compared using a χ^2 or Fisher’s exact test. Normally distributed continuous data are expressed as means and standard deviations (SD), and were compared using the t-test. Otherwise, values are presented as means with interquartile range (IQR) and were compared using the Mann-Whitney U-test. The baseline and clinical characteristics of patients receiving different CMS doses were compared using the ANOVA or Kruskal-Wallis test. Multivariate analysis of risk factors for colistin-associated nephrotoxicity was conducted using logistic regression. Univariate analyses were performed separately for each of the risk factor variables to ascertain the odds ratio (OR) and 95% confidence interval (CI). All clinically important covariates and those with p < 0.3 in the univariate analyses were included in the multivariate analysis.

[2] = Colistin plasma concentration at steady state (Css,avg) by HPLC in CMS-treated patients with CKD; format: in vivo, human
Experimental: We conducted a prospective observational study in a cohort of patients with CKD and infections caused by extensively drug-resistant P. aeruginosa treated with intravenous CMS for at least 48 h. The study was carried out at Hospital del Mar, a tertiary care university hospital in Barcelona (Spain), from January 2010 to August 2018. The study was approved by the local ethics committee (Comité Ètic d’Investigació Clínica del Parc de Salut Mar. Approval number 2011/4501/I). Exclusion criteria were age <18 years, pregnancy, and breast-feeding during the study period. A pharmacy-generated alarm system was used to identify patients under CMS treatment. […]
The dosage regimen and dose adjustments were determined by the treating physician. […]
Blood samples were obtained just before the next dose on day 3–4 of the treatment. […] Concentrations of CMS and formed colistin in plasma were measured using a validated high-performance liquid chromatography (HPLC) method. The limit of quantification of the HPLC methods for colistin and CMS in plasma were 0.20 and 0.50 mg/L, respectively. As the plasma concentration-time profiles of formed colistin are almost flat, measured colistin concentrations were regarded as Css,avg. The percentage of patients achieving the therapeutic target defined as a Css,avg of 2 mg/L was also analyzed. […] We calculated the expected Css based on the formula of Nation et al..

[3] = cited from earlier work
Excerpt: Colistin use has reemerged in recent years for the treatment of multidrug-resistant Gram-negative infections, which has prompted the performance of a large number of clinical and PK studies of its use in the last decade. However, there is still little pharmacological information in patients at high risk of under- or overdosing, such as those with CKD. […] CMS, the pro-drug, is renally eliminated by glomerular filtration and active tubular secretion. Previ ... || Recent toxicodynamic studies performed in the general population indicate that the risk of nephrotoxicity in patients receiving CMS increases with plasma colistin concentration exceeding 2.5 mg/L [13, 15]. This point, together with the lack of information on the minimum inhibitory concentrations (MIC) at the beginning of CMS treatment, have led to consideration of an average Css,avg of 2 mg/L as a target when initiating therapy. The median Css,avg in this study was 0.9 mg/L, which is far below the above-mentioned recommended 2 mg/L [11] but is also below those reported in previous ... || Blood samples were obtained just before the next dose on day 3–4 of the treatment. […] Concentrations of CMS and formed colistin in plasma were measured using a validated high-performance liquid chromatography (HPLC) method. The limit of quantification of the HPLC methods for colistin and CMS in plasma were 0.20 and 0.50 mg/L, respectively. As the plasma concentration-time profiles of formed colistin are almost flat, measured colistin concentrations were regarded as Cs ...

[4] = in vivo
Experimental: as §2, §3

[5] = human, in vivo; cited from earlier work
Experimental: Recent toxicodynamic studies performed in the general population indicate that the risk of nephrotoxicity in patients receiving CMS increases with plasma colistin concentration exceeding 2.5 mg/L [13, 15]. This point, together with the lack of information on the minimum inhibitory concentrations (MIC) at the beginning of CMS treatment, have led to consideration of an average Css,avg of 2 mg/L as a target when initiating therapy. […] Rates of nephrotoxicity in patients treated with CMS range from 20% to 60% according to recent studies using standardized criteria to evaluate nephrotoxicity. Even though WRF was reversible in more than 50% of patients, the diagnosis and management of this complication during CMS treatment is a challenge in daily clinical practice, since nephrotoxicity is potentially related to worse clinical outcomes. In two previous studies by our group, the pre ...

[6] = 30-day all-cause mortality in CMS-treated CKD patients; format: in vivo, human
Experimental: (§1) CKD was defined as kidney damage or GFR <60 mL/min/1.73 m^2 for 3 months or more, irrespective of cause. Infections were defined according to the Centers for Disease Control and Prevention. Clinical failure was defined as a lack of improvement in patients or in at least one of the initial symptoms, worsening or death. Clinical cure was defined as either the absence of symptoms or as a consistent improvement in the signs and symptoms of the infection. Thirty-day all-cause mortality was considered as death from any cause during the 30 days following EOT. Combined antibiotic treatment consisted of CMS plus meropenem or CMS plus amikacin.

[7] = system: extensively drug-resistant Pseudomonas aeruginosa; experiment: Clinical cure / clinical failure in CKD patients treated with intravenous CMS; format: in vivo
Experimental: We conducted a prospective observational study in a cohort of patients with CKD and infections caused by extensively drug-resistant P. aeruginosa treated with intravenous CMS for at least 48 h. The study was carried out at Hospital del Mar, a tertiary care university hospital in Barcelona (Spain), from January 2010 to August 2018. The study was approved by the local ethics committee (Comité Ètic d’Investigació Clínica del Parc de Salut Mar. Approval number 2011/4501/I). Exclusion criteria were age <18 years, pregnancy, and breast-feeding during the study period. A pharmacy-generated alarm system was used to identify patients under CMS treatment. The study investigators performed the assessment from the first day of the treatment and informed consent was obtained from all participants or their legal representatives.
as §1
The dosage regimen and dose adjustments were determined by the treating physician. Since this study was performed over more than 8 years, colistin daily doses varied during this time. From 2010 to 2014, dose adjustments were made according to the package insert’s recommended dosing as follows: GFR ≥76 mL/min/1.73 m^2, 4–6 million IU daily in three doses; GFR 40–75 mL/min/1.73 m^2, 2–3 million IU daily in two doses; GFR 25–40 mL/min/1.73 m^2, 1.5–2 million IU daily divided in one or two doses and; GFR <25 mL/min/1.73 m^2, 0.6–1 million IU daily every 36 h. In 2014, a new protocol based on our previous experience was implemented in our center and CMS was adjusted as follows: GFR ≥90 mL/min/1.73 m^2, 9 million IU daily in three doses; GFR 50–89 mL/min/1.73 m^2, 3 million IU every 12 h, GFR 10–49 mL/min/1.73 m^2, 3 million IU per day; GFR ≤10 mL/min/1.73 m^2, 2 million IU/day. However, the final dose was chosen by the treating physician. CMS (colistimethate formulation for intravenous use, GES Genéricos Españoles®, Las Rozas, Spain was diluted in 100 mL of physiological saline before intravenous administration over 30 min. Each vial contained 1 million IU of CMS (equivalent to 80 mg CMS).

[8] = human, in vivo, iv
[9] = Garonzik et al. pharmacokinetic study, ref [8]
[10] = diagnosis SSTI (skin and soft tissue infection)
[11] = diagnosis UTI (urinary tract infection)

CC[C@H](C)CCCCC(=O)N[C@@H](CCN)C(=O)N[C@H](C(=O)N[C@@H](CCN)C(=O)N[C@H]1CCNC(=O)[C@H]([C@@H](C)O)NC(=O)[C@H](CCN)NC(=O)[C@H](CCN)NC(=O)[C@H](CC(C)C)NC(=O)[C@@H](CC(C)C)NC(=O)[C@H](CCN)NC1=O)[C@@H](C)O [colistin] (X1-[Dab]T[Dab][Dab][Dab][dL]L[Dab][Dab]T; lactam 4-C)
OR of Css as independent risk factor for colistin-associated nephrotoxicity at the end of treatment ([1]; 95% CI 1.02–10.1, p = 0.047): 3.21 | Css,avg (colistin plasma concentration at steady-state), median (interquartile range) ([2]; all CKD patients n = 59, iv CMS, median daily dose 3 million IU, blood just before next dose on day 3–4, plasma, HPLC): 900 ng/mL | Css,avg ([2]; patients with clinical cure (n = 43), unit printed in Table 1 only): 800 ng/mL | Colistin Css,avg, median [3, 9]: 2360 ng/mL | Colistin Css,avg, range [3, 9]: 480 to 9380 ng/mL | Colistin plasma concentration in previous studies in the general population ([3]; IQR 0.11–5.99, ref [7],[13]): 1.06 | Half-life ([3]; assumed for steady state on day 3–4, ref [10]): approximately 14 h

colistimethate sodium [CMS]
OR of DOT (days of CMS treatment) as risk factor for colistin-associated nephrotoxicity at the end of treatment ([1]; p = 0.069): 1.11 | GFR at EOT, median (interquartile range) [4]: 30.1 (6.51–81.4) mL/min/1.73 m^2 | Incidence of WRF at EOT [4]: 33.9% | Recovery of baseline renal function [4]: 10 (52.6) n (%) | WRF (worsened renal function) at the end of treatment [4]: 20 (33.9) n (%) | WRF at EOT, RIFLE class F (Failure) [4]: 3 (15) n (%) | WRF at EOT, RIFLE class I (Injury) [4]: 10 (50) n (%) | WRF at EOT, RIFLE class R (Risk) [4]: 3 (15) n (%) | WRF reversible, patients [4]: 52.6% | Rates of nephrotoxicity in patients treated with CMS [5]: 20-60% | 30-day all-cause mortality ([6]; patients with clinical failure (n = 16)): 13 (81.3) n (%) | 30-day all-cause mortality ([6]; patients without nephrotoxicity at EOT (n = 39)): 10 (25.64) n (%) | CMS dose renally excreted in the urine ([3]; during the first 24 h after dosing, ref [21]): about 60% | Urinary excretion of CMS after intravenous administration ([3]; patients, within the first 6 h, ref [22]): rapid urinary excretion | Clinical cure, patients ([7]; 43 of 59 CKD patients, iv CMS, XDR P. aeruginosa infections): 72.9% | Patients with clinical cure [7, 10]: 3 (60) n (%) | Patients with clinical failure [7, 10]: 2 (40) n (%) | Patients with clinical cure [7, 11]: 15 (93.6) n (%) | Patients with clinical failure [7, 11]: 1 (6.25) n (%) | Patients with clinical cure ([7]; diagnosis bacteremia): 3 (100) n (%) | Patients with clinical failure ([7]; diagnosis bacteremia): 0 (0) n (%) | Patients with clinical cure ([7]; diagnosis others): 4 (57.1) n (%) | Patients with clinical failure ([7]; diagnosis others): 3 (42.9) n (%) | Patients with clinical cure ([7]; diagnosis pneumonia): 7 (50) n (%) | Patients with clinical failure ([7]; diagnosis pneumonia): 7 (50) n (%) | Patients with clinical cure ([7]; diagnosis tracheobronchitis): 11 (78.6) n (%) | Patients with clinical failure ([7]; diagnosis tracheobronchitis): 3 (21.43) n (%) | Neurotoxicity [8]: none of the patients in this cohort developed neurotoxicity
